Read-outs that look alike come from different tables or passages of the source. Some results are limits rather than exact numbers.

From patent publication US20250230159A1, “FUSED HETEROCYCLIC COMPOUNDS AS MODULATORS OF RAS SIGNALLING” (Shenzhen Ionova Life Science Co., Ltd., priority 2022, published 2025) come the findings set out here.

In test [1] the target is KRAS-G12C/SOS1 interaction (Homo sapiens (Human), UniProt Q07889). Description: Protein-Protein Interaction (PPI) assay, SOS1-KRAS binding assay kit (HTRF). The following applies: read-out: PPI Assay IC50. In general terms: In TR-FRET formats the signal depends on donor and acceptor labels being close together.
KRAS-G12C/SOS1 interaction, sequence (Q07889 whole entry, stated change not applied): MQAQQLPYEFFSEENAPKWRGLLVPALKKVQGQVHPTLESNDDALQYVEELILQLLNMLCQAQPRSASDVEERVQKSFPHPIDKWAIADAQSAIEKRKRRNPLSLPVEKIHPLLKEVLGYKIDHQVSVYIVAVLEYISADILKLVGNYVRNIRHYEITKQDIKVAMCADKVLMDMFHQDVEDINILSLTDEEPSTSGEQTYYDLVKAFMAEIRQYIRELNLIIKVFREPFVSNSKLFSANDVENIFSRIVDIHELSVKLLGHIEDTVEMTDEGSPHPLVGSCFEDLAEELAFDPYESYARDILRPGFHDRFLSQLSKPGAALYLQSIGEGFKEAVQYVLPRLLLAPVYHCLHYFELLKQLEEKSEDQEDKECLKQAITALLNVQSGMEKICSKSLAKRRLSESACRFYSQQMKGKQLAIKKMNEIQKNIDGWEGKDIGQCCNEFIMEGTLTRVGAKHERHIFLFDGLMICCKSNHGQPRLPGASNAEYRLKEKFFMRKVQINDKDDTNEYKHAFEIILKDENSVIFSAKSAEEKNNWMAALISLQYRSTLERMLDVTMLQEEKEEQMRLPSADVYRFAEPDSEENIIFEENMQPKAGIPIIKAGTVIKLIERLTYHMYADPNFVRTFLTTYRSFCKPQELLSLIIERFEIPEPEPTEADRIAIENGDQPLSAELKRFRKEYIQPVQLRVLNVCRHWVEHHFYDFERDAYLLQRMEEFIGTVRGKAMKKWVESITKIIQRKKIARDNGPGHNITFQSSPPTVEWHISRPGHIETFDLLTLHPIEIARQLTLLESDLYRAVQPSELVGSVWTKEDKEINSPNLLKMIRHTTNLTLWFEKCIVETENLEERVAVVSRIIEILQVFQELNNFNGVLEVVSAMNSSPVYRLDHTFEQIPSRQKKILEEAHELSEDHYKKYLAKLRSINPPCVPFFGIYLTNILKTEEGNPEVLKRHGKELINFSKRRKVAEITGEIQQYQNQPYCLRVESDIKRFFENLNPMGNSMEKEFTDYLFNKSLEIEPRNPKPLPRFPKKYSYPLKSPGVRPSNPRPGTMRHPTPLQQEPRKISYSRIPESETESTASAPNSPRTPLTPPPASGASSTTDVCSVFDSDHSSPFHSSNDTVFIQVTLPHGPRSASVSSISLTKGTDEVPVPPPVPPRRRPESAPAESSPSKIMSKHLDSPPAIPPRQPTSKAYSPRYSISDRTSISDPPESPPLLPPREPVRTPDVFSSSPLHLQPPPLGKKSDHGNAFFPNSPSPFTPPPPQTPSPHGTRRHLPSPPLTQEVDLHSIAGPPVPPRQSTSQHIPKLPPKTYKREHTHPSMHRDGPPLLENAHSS
The next test has as its system pERK in Hela cells. As to the kind of experiment: Phospho-ERK (p-ERK) assay in Hela cells. The following applies: Table 1, 1 hour with compound, β-actin normalized. In kind it is cell-based. How it is done:
This Example illustrates that exemplary compounds of the present invention prevent KRas-mediated GTP nucleotide exchange mediated by SOS1 to inhibit KRas activity, thereby inhibiting the generation of the downstream effector pERK.
Hela cells (23,000/w) were seeded in a black clear flat bottom 96-well cell culture plate (Corning, #3904) and incubated at 37° C. overnight. At day 2, cells were dosed with compounds of Formula (I) with a 10 μM starting concentration and serially diluted 3× for a total of 9 concentrations. The cells were incubated for 1 hour with the compounds solubilized in DMSO at 37° C. Cells were immediately fixed by adding 100 μL of 8% formaldehyde to all wells in a fume hood and the plates were incubated for 1 hr at room temperature. The formaldehyde was discarded from the plates and washed 5 times and each time for 5 min with 200 μL of Triton Washing Solution (0.1% Triton in PBS) each time to permeabilize the cells. Cells were then blocked with 150 μL of Odyssey blocking buffer (LI-COR Biosciences #927-50010) at room temperature on a shaker. The blocking buffer was discarded and 50 μL of primary antibodies pERK (cell signaling Technology #4370; Rabbit, 1:500) and β-actin (AF5001; Mouse, 1:2000) diluted in Odyssey blocking buffer was added. The plates were incubated overnight at 4° C. on a shaker.
On day 3, the primary antibody solution was removed. Each plate was washed 5× times with 200 μL of 1×PBST (PBS+0.1% Tween 20) and incubated with 50 μL of secondary antibodies: Anti-Rabbit (LI-COR Biosciences #926-32211) and Anti-Mouse (LI-COR Biosciences #68070) at 1:1000 dilution in Odyssey blocking buffer at room temperature on a shaker for 1 hour (protected from light). The secondary antibody solution as removed and each plate was washed with PBST 5× times. Any liquid remaining was discarded and the plate was imaged using the Licor Odyssey machine according to the manufacturer's instruction, using a set focus length at 3.5 mm and both 800 nm and 700 nm filters. The 3-actin normalized scan values for each well were divided by the average of vehicle wells to get the % of p-ERK inhibition. The IC50 values were then calculated with the Graph pad Prism software. In general, p-ERK IC50 data are in line with the PPI IC50 data.

A word on the IC50: it is the concentration at which inhibition is half-maximal. As to `Cc1nc(N[C@H](C)c2cccc(C(F)F)c2F)c2cc(C(=O)N3C4CC3CN(C)C4)c3nnnn3c2n1` [Example 66], the IC50 in test [1] was below 100 nM; with pERK in Hela cells (Homo sapiens) it was above 100 nM.
`CC(=O)N1CCC(F)(c2cc3c(N[C@H](C)c4cccc(C(F)F)c4F)ncnc3n3nnnc23)CC1` [Example 117]: the IC50 (in test [1]; in the test with pERK in Hela cells (Homo sapiens)) was below 100 nM in each case.
Regarding `Cc1nc(N[C@H](C)c2cccc(C(F)F)c2F)c2cc(C(=O)N3CC4(COC4)C3)c3nnnn3c2n1` [Example 62], the IC50 in test [1] (Table 1 (PPI IC50 < 100 nM), Tag1-SOS1 / Tag2-KRAS-G12C, HTRF, 10 μM GTP) was below 100 nM; in the test on pERK in Hela cells, above 100 nM.
Turning to `Cc1nc(N[C@H](C)c2cccc(C(F)F)c2F)c2cc(C(=O)N3C4CCC3CN(C)C4)c3ncnn3c2n1` [Example 37], the half-inhibitory concentration (IC50) is below 100 nM in test [1] and above 100 nM in the test with pERK in Hela cells (Homo sapiens).
With `Cc1nc2c(N3CCOCC3)cc3c(N[C@H](C)c4cccc(C(F)F)c4F)ncnc3n2n1` [Example 154], the IC50 (in test [1]; with pERK in Hela cells (Homo sapiens)) was below 100 nM throughout.
Regarding `Cc1nc2c(N3CC4(CC4)OCC3=O)cc3c(N[C@H](C)c4cccc(C(F)F)c4F)ncnc3n2n1` [Example 157], the half-maximal inhibitory concentration (IC50) (in test [1]; in the test on pERK in Hela cells (Homo sapiens)) was below 100 nM in each case.
`Cc1nc(N[C@H](C)c2cccc(C(F)F)c2F)c2cc(C(=O)N3CC4(COC4)C3)c3ncnn3c2n1` [Example 27]: the IC50 (in test [1]; with pERK in Hela cells (Homo sapiens)) was below 100 nM in each case.
As for `C[C@@H](Nc1ncnc2c1cc(N1CCOCC1=O)c1nncn12)c1cc(N)cc(C(F)(F)F)c1` [Example 86], the IC50 (in test [1]; with pERK in Hela cells (Homo sapiens)) was below 100 nM each time.
Regarding `Cc1nc(N[C@H](C)c2cc(N)cc(C(F)(F)F)c2)c2cc(C(=O)N3CCN(CCO)CC3)c3ncnn3c2n1` [Example 5], the values for the concentration for half-maximal inhibition (IC50) (in test [1]; in the test on pERK in Hela cells (Homo sapiens)) were below 100 nM and above 100 nM, respectively.
As for `Cc1nc(N[C@H](C)c2cc(N)cc(C(F)(F)F)c2)c2cc(C(=O)N3CCOCC3)c3ncnn3c2n1` [Example 2, (R)-(6-((1-(3-amino-5-(trifluoromethyl)phenyl)ethyl)amino)-8-methyl-[1,2,4]triazolo[1′,5′:1,6]pyrido[2,3-d]pyrimidin-4-yl)(morpholino)methanone], the figures for the 50% inhibitory concentration (IC50) (in test [1]; in the test with pERK in Hela cells (Homo sapiens)) were below 100 nM and above 100 nM, respectively.
Turning to `CC(=O)N1CC=C(c2cc3c(N[C@H](C)c4cccc(C(F)F)c4F)ncnc3n3cnnc23)CC1` [Example 101], the IC50 (in test [1]; in the test with pERK in Hela cells (Homo sapiens)) was below 100 nM throughout.
In the case of `C[C@@H](Nc1ncnc2c1cc(N1CCOCC1)c1nncn12)c1cccc(C(F)F)c1F` [Example 79], the IC50 (in test [1]; in the test with pERK in Hela cells (Homo sapiens)) was below 100 nM each time.
On to `COCCN1CCN(C(=O)c2cc3c(N[C@H](C)c4cc(N)cc(C(F)(F)F)c4)nc(C)nc3n3ncnc23)CC1` [Example 4], for which the results for the IC50 (in test [1]; in the test with pERK in Hela cells (Homo sapiens)) were below 100 nM and above 100 nM, respectively.
On to `COCC(=O)N1CCC(c2cc3c(N[C@H](C)c4cccc(C(F)F)c4F)nc(C)nc3n3cnnc23)CC1` [Example 68], for which the results for the half-maximal inhibitory concentration (IC50) (in test [1]; in the test with pERK in Hela cells (Homo sapiens)) were below 100 nM and above 100 nM, respectively.
For `COC1(c2cc3c(N[C@H](C)c4cc(N)cc(C(F)(F)F)c4)ncnc3n3cnnc23)CCOCC1` [Example 123] the same measures were below 100 nM and below 100 nM.
The like results for `Cc1nc(N[C@H](C)c2cc(N)cc(C(F)(F)F)c2)c2cc(C(=O)N3CC4(COC4)C3)c3ncnn3c2n1` [Example 6] were, in that order, below 100 nM and below 100 nM.
For `CC(=O)N1CCC(F)(c2cc3c(N[C@H](C)c4cccc(C(F)F)c4F)nc(C)nc3n3cnnc23)C1` (stereo partly shown) [Example 115] the same measures were below 100 nM and above 100 nM.
As for `CC(=O)N1CCC(c2cc3c(N[C@H](C)c4cccc(C(F)F)c4F)ncnc3n3nnnc23)CC1` [Example 145], the half-inhibitory concentration (IC50) (in test [1]; with pERK in Hela cells (Homo sapiens)) was below 100 nM in each case.
Regarding `Cc1nc(N[C@H](C)c2cccc(C(F)F)c2F)c2cc(C(=O)N3CCOCC3)c3nnnn3c2n1` [Example 58], the 50% inhibitory concentration (IC50) (in test [1]; in the test on pERK in Hela cells (Homo sapiens)) was below 100 nM throughout.
In the case of `C[C@@H](Nc1ncnc2c1cc(C(=O)N1C3CC1CN(C)C3)c1ncnn12)c1cccc(C(F)F)c1F` [Example 47], the half-inhibitory concentration (IC50) was below 100 nM in test [1] and above 100 nM in the test with pERK in Hela cells (Homo sapiens).
The like results for `CC(=O)N1CCC(c2cc3c(N[C@H](C)c4cccc(C(F)F)c4F)nc(C)nc3n3nnnc23)CC1` [Example 142] were, in that order, below 100 nM and above 100 nM.
The like results for `Cc1nc(N[C@H](C)c2cccc(C(F)F)c2F)c2cc(N3CCS(=O)(=O)CC3)c3nncn3c2n1` [Example 76] were, in that order, below 100 nM and above 100 nM.
For `Cc1nc2c(C3(C(F)(F)F)CC3)cc3c(N[C@H](C)c4cccc(C(F)F)c4F)ncnc3n2n1` [Example 169, (R)—N-(1-(3-(difluoromethyl)-2-fluorophenyl)ethyl)-2-methyl-4-(1-(trifluoromethyl)cyclopropyl)-[1,2,4]triazolo[1′,5′:1,6]pyrido[2,3-d]pyrimidin-6-amine] the same measures were below 100 nM and below 100 nM.
On to `CC(=O)N1CCN(c2cc3c(N[C@H](C)c4cccc(C(F)F)c4F)nc(C)nc3n3nnnc23)CC1` [Example 92], for which the IC50 (in test [1]; in the test with pERK in Hela cells (Homo sapiens)) was below 100 nM in each case.
Take `CC(=O)N1CCN(c2cc3c(N[C@H](C)c4cccc(C(F)F)c4F)ncnc3n3nnnc23)CC1` [Example 99]: the 50% inhibitory concentration (IC50) (in test [1]; with pERK in Hela cells (Homo sapiens)) was below 100 nM throughout.
For the molecule `CC(=O)N1CCC(O)(c2cc3c(N[C@H](C)c4cccc(C(F)F)c4F)ncnc3n3c(C(F)(F)F)nnc23)CC1` [Example 135, (R)-1-(4-(4-((1-(3-(difluoromethyl)-2-fluorophenyl)ethyl)amino)-9-(trifluoromethyl)-[1,2,4]triazolo[4′,3′:1,6]pyrido[2,3-d]pyrimidin-6-yl)-4-hydroxypiperidin-1-yl)ethan-1-one], the figures for the IC50 (in test [1]; with pERK in Hela cells (Homo sapiens)) were below 100 nM and above 100 nM, respectively.
Regarding `CC(=O)N1CC=C(c2cc3c(N[C@H](C)c4cccc(C(F)F)c4F)nc(C)nc3n3nnnc23)CC1` [Example 105], the concentration for half-maximal inhibition (IC50) (in test [1]; in the test with pERK in Hela cells (Homo sapiens)) was below 100 nM each time.
Consider `C[C@@H](Nc1ncnc2c1cc(N1CCN(C)C(=O)C1)c1nncn12)c1cccc(C(F)F)c1F` [Example 164], for which the IC50 (in test [1]; in the test with pERK in Hela cells (Homo sapiens)) was below 100 nM in each case.
Take `COCC(=O)N1CCC(c2cc3c(N[C@H](C)c4cc(N)cc(C(F)(F)F)c4)nc(C)nc3n3nnnc23)CC1` [Example 147]: the results for the IC50 (in test [1]; in the test with pERK in Hela cells (Homo sapiens)) were below 100 nM and above 100 nM, respectively.
For `C[C@@H](Nc1ncnc2c1cc(N1CCS(=O)(=O)CC1)c1nnnn12)c1cccc(C(F)F)c1F` [Example 96], the IC50 in test [1] was below 100 nM; with pERK in Hela cells (Homo sapiens) it was above 100 nM.
The like results for `Cc1nc(N[C@H](C)c2cccc(C(F)F)c2F)c2cc(C3CCN(CCS(C)(=O)=O)CC3)c3nncn3c2n1` [Example 71] were, in that order, below 100 nM and above 100 nM.
The like results for `CC(=O)N1CCC(C)(c2cc3c(N[C@H](C)c4cccc(C(F)F)c4F)nc(C)nc3n3nnnc23)CC1` [Example 131] were, in that order, below 100 nM and below 100 nM.
The like results for `Cc1nc(N[C@H](C)c2cccc(C(F)F)c2F)c2cc(C(=O)N3CCOCC3)c3ncnn3c2n1` [Example 11] were, in that order, below 100 nM and above 100 nM.
As to `Cc1nc(N[C@H](C)c2cccc(C(F)F)c2F)c2cc(C(=O)N3CCN(C(=O)N(C)C)CC3)c3ncnn3c2n1` [Example 21], the concentration for half-maximal inhibition (IC50) in test [1] is below 100 nM; in the test with pERK in Hela cells (Homo sapiens) it was above 100 nM.
For the molecule `Cc1nc(N[C@H](C)c2cccc(C(F)(F)F)c2C)c2cc(C(=O)N3CC4(COC4)C3)c3ncnn3c2n1` [Example 38], the IC50 is below 100 nM in test [1] and above 100 nM with pERK in Hela cells (Homo sapiens).
On to `Cc1nc(N[C@H](C)c2cccc(C(F)F)c2F)c2cc(C(=O)N(C)C)c3nnnn3c2n1` [Example 55, (R)-6-((1-(3-(difluoromethyl)-2-fluorophenyl)ethyl)amino)-N,N,8-trimethyltetrazolo[1′,5′:1,6]pyrido[2,3-d]pyrimidine-4-carboxamide], for which the 50% inhibitory concentration (IC50) in test [1] is below 100 nM; with pERK in Hela cells (Homo sapiens), above 100 nM.
In the case of `Cc1nc2c(N3CCOCC3=O)cc3c(N[C@H](C)c4cccc(C(F)F)c4F)ncnc3n2n1` [Example 155], the half-inhibitory concentration (IC50) (in test [1]; in the test with pERK in Hela cells (Homo sapiens)) was below 100 nM throughout.
On to `COC1(c2cc3c(N[C@H](C)c4cc(N)cc(C(F)(F)F)c4)ncnc3n3cnnc23)CCN(C(C)=O)CC1` [Example 122], for which the IC50 (in test [1]; with pERK in Hela cells (Homo sapiens)) was below 100 nM in each case.
